From patent US9771370B2, “Compounds for the inhibition of indoleamine-2,3-dioxygenase” (Merck Patent GmbH, priority 2014, dated 2017) come the findings set out here.

Sequence of Recombinant human IDO (P14902 whole entry): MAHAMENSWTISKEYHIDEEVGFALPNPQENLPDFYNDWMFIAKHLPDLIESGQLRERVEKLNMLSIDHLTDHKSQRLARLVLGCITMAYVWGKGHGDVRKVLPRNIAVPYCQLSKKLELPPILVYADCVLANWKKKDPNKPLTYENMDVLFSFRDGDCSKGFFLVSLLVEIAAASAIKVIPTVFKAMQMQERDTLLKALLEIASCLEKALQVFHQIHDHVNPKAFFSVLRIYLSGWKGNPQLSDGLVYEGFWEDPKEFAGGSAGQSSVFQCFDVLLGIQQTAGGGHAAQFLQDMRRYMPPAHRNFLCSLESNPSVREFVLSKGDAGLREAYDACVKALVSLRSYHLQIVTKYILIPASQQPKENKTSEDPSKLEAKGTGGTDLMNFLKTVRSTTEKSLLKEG

The target of the experiment is Recombinant human IDO (Homo sapiens, UniProt P14902). Briefly: Bridge-IT tryptophan fluorescence assay of human IDO-1 inhibition. The experiment is classed as biochemical. As to conditions: recombinant human IDO 7.5 nM, L-tryptophan. The essentials:
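One variant ran L-Trp at 100 μM for 90 min at 37 °C. The other pre-incubated compound for 30 min at 25 °C, then ran 50 μM L-Trp for 60 min at 25 °C.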
For `CC(C)(O)C1CCC(F)(CCC2c3ccccc3-c3cncn32)CC1` (single isomer, unassigned) [Compound 61c, 2-[4-fluoro-4-[2-[5H-imidazo[4,3-a]isoindol-5-yl]ethyl]cyclohexyl]propan-2-ol], the concentration for half-maximal inhibition (IC50) was below 100 nM. For `CC(C)(O)C1CCC(F)(CCC2c3ccccc3-c3cncn32)CC1` (single isomer, unassigned) [Compound 61d, 2-[4-fluoro-4-[2-[5H-imidazo[4,3-a]isoindol-5-yl]ethyl]cyclohexyl]propan-2-ol], the IC50 is below 100 nM. `OC(CC1CCCCC1)CC1c2ncccc2-c2cncn21` (single isomer, unassigned) [Compound 62a, 1-cyclohexyl-3-[4,6,9-triazatricyclo[6.4.0.0^[2,6]]dodeca-1(8),2,4,9,11-pentaen-7-yl]propan-2-ol]: the IC50 was in the range of 100 to 1000 nM. With `OC(CC1CCCCC1)CC1c2ncccc2-c2cncn21` (single isomer, unassigned) [Compound 62c, 1-cyclohexyl-3-[4,6,9-triazatricyclo[6.4.0.0^[2,6]]dodeca-1(8),2,4,9,11-pentaen-7-yl]propan-2-ol], the IC50 was above 1000 nM.

For `OC(CC1CCCCC1)CC1c2ncccc2-c2cncn21` (single isomer, unassigned) [Compound 62d, 1-cyclohexyl-3-[4,6,9-triazatricyclo[6.4.0.0^[2,6]]dodeca-1(8),2,4,9,11-pentaen-7-yl]propan-2-ol], the IC50 is above 1000 nM. As to `NC(=O)C1CCC(C(O)CC2c3ncccc3-c3cncn32)CC1` (single isomer, unassigned) [Compound 63b, 4-[1-hydroxy-2-[4,6,9-triazatricyclo[6.4.0.0^[2,6]]dodeca-1(8),2,4,9,11-pentaen-7-yl]ethyl]cyclohexane-1-carboxamide], the IC50 is above 1000 nM.

Regarding `NC(=O)C1CCC(C(O)CC2c3ncccc3-c3cncn32)CC1` (single isomer, unassigned) [Compound 63c, 4-[1-hydroxy-2-[4,6,9-triazatricyclo[6.4.0.0^[2,6]]dodeca-1(8),2,4,9,11-pentaen-7-yl]ethyl]cyclohexane-1-carboxamide], the IC50 is above 1000 nM. Consider `NC(=O)C1CCC(C(O)CC2c3ncccc3-c3cncn32)CC1` (single isomer, unassigned) [Compound 63d, 4-[1-hydroxy-2-[4,6,9-triazatricyclo[6.4.0.0^[2,6]]dodeca-1(8),2,4,9,11-pentaen-7-yl]ethyl]cyclohexane-1-carboxamide], for which the IC50 is above 1000 nM. For the molecule `CC1(C)CCC(F)(CCC2c3ncncc3-c3cncn32)CC1` (single isomer, unassigned) [Compound 66a, 7-[2-(1-fluoro-4,4-dimethylcyclohexyl)ethyl]-4,6,9,11-tetraazatricyclo[6.4.0.0^[2,6]]dodeca-1(8),2,4,9,11-pentaene], the IC50 is above 1000 nM.

Turning to `CC1(C)CCC(F)(CCC2c3ncncc3-c3cncn32)CC1` (single isomer, unassigned) [Compound 66b, 7-[2-(1-fluoro-4,4-dimethylcyclohexyl)ethyl]-4,6,9,11-tetraazatricyclo[6.4.0.0^[2,6]]dodeca-1(8),2,4,9,11-pentaene], the IC50 is above 1000 nM. On to `OC(CC1c2ncncc2-c2cncn21)C1CCCCC1` (single isomer, unassigned) [Compound 67b, 1-cyclohexyl-2-[4,6,9,11-tetraazatricyclo[6.4.0.0^[2,6]]dodeca-1(8),2,4,9,11-pentaen-7-yl]ethan-1-ol], for which the half-inhibitory concentration (IC50) is above 1000 nM. Take `OC(CC1c2ncncc2-c2cncn21)C1CCCCC1` (single isomer, unassigned) [Compound 67c, 1-cyclohexyl-2-[4,6,9,11-tetraazatricyclo[6.4.0.0^[2,6]]dodeca-1(8),2,4,9,11-pentaen-7-yl]ethan-1-ol]: the IC50 was above 1000 nM. `OC(CC1c2nc(OC3CC3)ccc2-c2cncn21)C1CCCCC1` (single isomer, unassigned) [Compound 68a, 1-cyclohexyl-2-[10-cyclopropoxy-4,6,9-triazatricyclo[6.4.0.0^[2,6]]dodeca-1(8),2,4,9,11-pentaen-7-yl]ethan-1-ol]: the IC50 was 100 to 1000 nM. To `OC(CC1c2nc(OC3CC3)ccc2-c2cncn21)C1CCCCC1` (single isomer, unassigned) [Compound 68c, 1-cyclohexyl-2-[10-cyclopropoxy-4,6,9-triazatricyclo[6.4.0.0^[2,6]]dodeca-1(8),2,4,9,11-pentaen-7-yl]ethan-1-ol] belongs above 1000 nM; to `OC(CC1c2nc(OC3CC3)ccc2-c2cncn21)C1CCC(F)(F)CC1` (single isomer, unassigned) [Compound 69a, 2-[10-cyclopropoxy-4,6,9-triazatricyclo[6.4.0.0^[2,6]]dodeca-1(8),2,4,9,11-pentaen-7-yl]-1-(4,4-difluorocyclohexyl)ethan-1-ol], 100 to 1000 nM. To `OC(CC1c2nc(OC3CC3)ccc2-c2cncn21)C1CCC(F)(F)CC1` (single isomer, unassigned) [Compound 69b, 2-[10-cyclopropoxy-4,6,9-triazatricyclo[6.4.0.0^[2,6]]dodeca-1(8),2,4,9,11-pentaen-7-yl]-1-(4,4-difluorocyclohexyl)ethan-1-ol] belongs above 1000 nM.

With `OC(CC1c2nc(OC3CC3)ccc2-c2cncn21)C1CCC(F)(F)CC1` (single isomer, unassigned) [Compound 69c, 2-[10-cyclopropoxy-4,6,9-triazatricyclo[6.4.0.0^[2,6]]dodeca-1(8),2,4,9,11-pentaen-7-yl]-1-(4,4-difluorocyclohexyl)ethan-1-ol], the IC50 was above 1000 nM. As for `OC(CC1c2nc(OC3CC3)ccc2-c2cncn21)C1CCC(F)(F)CC1` (single isomer, unassigned) [Compound 69d, 2-[10-cyclopropoxy-4,6,9-triazatricyclo[6.4.0.0^[2,6]]dodeca-1(8),2,4,9,11-pentaen-7-yl]-1-(4,4-difluorocyclohexyl)ethan-1-ol], the half-maximal inhibitory concentration (IC50) was above 1000 nM. For `FC1(CCC2c3c(Cl)cccc3-c3cncn32)CCCCC1` (single isomer, unassigned) [Compound 70a, 6-chloro-5-[2-(1-fluorocyclohexyl)ethyl]-5H-imidazo[4,3-a]isoindole], the IC50 is above 1000 nM. On to `FC1(CCC2c3c(Cl)cccc3-c3cncn32)CCCCC1` (single isomer, unassigned) [Compound 70b, 6-chloro-5-[2-(1-fluorocyclohexyl)ethyl]-5H-imidazo[4,3-a]isoindole], for which the IC50 is 100 to 1000 nM. `OC1CCC(F)(CCC2c3c(Cl)cccc3-c3cncn32)CC1` (single isomer, unassigned) [Compound 71a, 4-[2-[6-chloro-5H-imidazo[4,3-a]isoindol-5-yl]ethyl]-4-fluorocyclohexan-1-ol]: the IC50 was in the range of 100 to 1000 nM. With `OC1CCC(F)(CCC2c3c(Cl)cccc3-c3cncn32)CC1` (single isomer, unassigned) [Compound 71b, 4-[2-[6-chloro-5H-imidazo[4,3-a]isoindol-5-yl]ethyl]-4-fluorocyclohexan-1-ol], the IC50 lay within 100 to 1000 nM. With `OC1CCC(F)(CCC2c3c(Cl)cccc3-c3cncn32)CC1` (single isomer, unassigned) [Compound 71c, 4-[2-[6-chloro-5H-imidazo[4,3-a]isoindol-5-yl]ethyl]-4-fluorocyclohexan-1-ol], the IC50 was above 1000 nM.

Regarding `OC1CCC(F)(CCC2c3c(Cl)cccc3-c3cncn32)CC1` (single isomer, unassigned) [Compound 71d, 4-[2-[6-chloro-5H-imidazo[4,3-a]isoindol-5-yl]ethyl]-4-fluorocyclohexan-1-ol], the IC50 was below 100 nM. Take `FC1(F)CCC(F)(CCC2c3c(Cl)cccc3-c3cncn32)CC1` (single isomer, unassigned) [Compound 72a, 6-chloro-5-[2-(1,4,4-trifluorocyclohexyl)ethyl]-5H-imidazo[4,3-a]isoindole]: the IC50 was above 1000 nM. `FC1(F)CCC(F)(CCC2c3c(Cl)cccc3-c3cncn32)CC1` (single isomer, unassigned) [Compound 72b, 6-chloro-5-[2-(1,4,4-trifluorocyclohexyl)ethyl]-5H-imidazo[4,3-a]isoindole]: the IC50 was 100 to 1000 nM. For the molecule `FC1(CCC2c3nc(C(F)(F)F)ccc3-c3cncn32)CCCCC1` (single isomer, unassigned) [Compound 76a, 7-[2-(1-fluorocyclohexyl)ethyl]-10-(trifluoromethyl)-4,6,9-triazatricyclo[6.4.0.0^[2,6]]dodeca-1(8),2,4,9,11-pentaene], the IC50 is above 1000 nM. For `FC1(CCC2c3nc(C(F)(F)F)ccc3-c3cncn32)CCCCC1` (single isomer, unassigned) [Compound 76b, 7-[2-(1-fluorocyclohexyl)ethyl]-10-(trifluoromethyl)-4,6,9-triazatricyclo[6.4.0.0^[2,6]]dodeca-1(8),2,4,9,11-pentaene], the IC50 is above 1000 nM. On to `OC(CC1c2nc(C(F)(F)F)ccc2-c2cncn21)C1CCC(F)(F)CC1` (single isomer, unassigned) [Compound 77a, 1-(4,4-difluorocyclohexyl)-2-[10-(trifluoromethyl)-4,6,9-triazatricyclo[6.4.0.0^[2,6]]dodeca-1(8),2,4,9,11-pentaen-7-yl]ethan-1-ol], for which the IC50 was above 1000 nM.

In the case of `OC(CC1c2nc(C(F)(F)F)ccc2-c2cncn21)C1CCC(F)(F)CC1` (single isomer, unassigned) [Compound 77b, 1-(4,4-difluorocyclohexyl)-2-[10-(trifluoromethyl)-4,6,9-triazatricyclo[6.4.0.0^[2,6]]dodeca-1(8),2,4,9,11-pentaen-7-yl]ethan-1-ol], the IC50 was above 1000 nM. Regarding `OC(CC1c2nc(C(F)(F)F)ccc2-c2cncn21)C1CCC(F)(F)CC1` (single isomer, unassigned) [Compound 77c, 1-(4,4-difluorocyclohexyl)-2-[10-(trifluoromethyl)-4,6,9-triazatricyclo[6.4.0.0^[2,6]]dodeca-1(8),2,4,9,11-pentaen-7-yl]ethan-1-ol], the IC50 is above 1000 nM.
